Counter-ions that a name gives are not always drawn.
Assays:
[1] = Acute toxicity LD50 (Litchfield and Wilcoxon); settings: in vivo
[2] = system: bronchospasm induced by Acetilcholine in conscious guinea pig; experiment: Prevention of acetylcholine-induced bronchospasm in conscious guinea pig by inhalation (Armitage method)
[3] = system: Guinea Pig airway constriction; settings: i.v.; literature (Duhault et al.); cited from earlier work

## CC(C)NCC(O)c1cc(O)cc(O)c1 (centres unmarked) [Orciprenaline, reference compound]
[1]
  LD50: 380 mg/kg
[2]
  time before sign of dispnea (mean): 502 ± 67 s

## Cn1c(=O)c2[nH]cnc2n(C)c1=O [Theophylline]
[3]
  active dose in the experimental bronchospasm according to Konzett-Rossler: 25 mg/kg

## COc1ccc(CC(C)NCC(O)c2cc(N)cc(CO)c2)cc1 (centres unmarked) [VAL 5000/PM, 1-(5-amino-3 hydroxymethyl) phenyl-2-(1 p-methoxyphenyl-2-propylamino)ethanol dihydrochloride]
[1]
  LD50: 295 mg/kg
[2]
  time before sign of dispnea (mean): 475 ± 60 s

From US4337272A, “Amino-ethanol derivatives” (Valeas S. R. L. Industria Chimica E Farmaceutica, priority 1975, dated 1982)
